Patent US9580451B2, “Sulfonic esters of metal oxides and methods of their use” (California Institute of Technology, priority 2013, dated 2017)

Experiment: Relative fluorescence quantum yield measurement
Format: physicochemical
Settings: degassed toluene, tetraphenylporphyrin as standard
Description: The Φem measurements were performed using degassed toluene solutions of 1,1-Al, 1-Ga, and tetraphenylporphyrin (as a standard). Samples were excited at λex=355 nm and the emission was observed from λem=500-800 nm. The standard tetraphenylporphyrin was excited at λex=514 nm and the emission was observed from λem=500-800 nm. Φem for tetraphenylporphyrin is 0.11.3 All relative fluorescence quantum yields were calculated based on the corresponding fluorescence spectra of the samples and the standard according to the equation: […]
where Φem(s) and Φem(x) are the relative fluorescence quantum yield of the standard and sample, respectively; As and Ax are the absorbance at the excitation wavelength for the standard and sample, respectively; Fs and Fx are the area under the corrected emission curve for the standard and sample, respectively; and ηs and ηx are the refractive index of the solvent used for the standard and sample, respectively.

φem, relative emission quantum yield: 0.094
SMILES: O=S(=O)(Cl)C1=Cc2nc1c(-c1c(F)c(F)c(F)c(F)c1F)c1ccc([nH]1)c(-c1c(F)c(F)c(F)c(F)c1F)c1ccc([nH]1)c(-c1c(F)c(F)c(F)c(F)c1F)c1cc(S(=O)(=O)Cl)c2[nH]1 [compound 1, 2,17-bischlorosulfonato-5,10,15-tris(pentafluorophenyl)corrole]
